The values that follow come from publication PMC10692163, “Structure-based discovery of novel P-glycoprotein inhibitors targeting the nucleotide binding domains” (Scientific Reports, 2023).

Where two headings read alike, the source gives them in different places.

For data set [1], the system named is P-gp nucleotide binding domain. Particulars: Table S1, supplement reference list, cited from earlier work.
The target in data set [2] is T1, P-gp (Homo sapiens, UniProt P08183). The arrangement: method as in PMID 1356264, PMID 7911680, PMID 7772017, PMID 11121420. The following applies: read-out: Binding affinity for ATP to P-gp; cited from earlier work.
T1 sequence (P08183 whole entry): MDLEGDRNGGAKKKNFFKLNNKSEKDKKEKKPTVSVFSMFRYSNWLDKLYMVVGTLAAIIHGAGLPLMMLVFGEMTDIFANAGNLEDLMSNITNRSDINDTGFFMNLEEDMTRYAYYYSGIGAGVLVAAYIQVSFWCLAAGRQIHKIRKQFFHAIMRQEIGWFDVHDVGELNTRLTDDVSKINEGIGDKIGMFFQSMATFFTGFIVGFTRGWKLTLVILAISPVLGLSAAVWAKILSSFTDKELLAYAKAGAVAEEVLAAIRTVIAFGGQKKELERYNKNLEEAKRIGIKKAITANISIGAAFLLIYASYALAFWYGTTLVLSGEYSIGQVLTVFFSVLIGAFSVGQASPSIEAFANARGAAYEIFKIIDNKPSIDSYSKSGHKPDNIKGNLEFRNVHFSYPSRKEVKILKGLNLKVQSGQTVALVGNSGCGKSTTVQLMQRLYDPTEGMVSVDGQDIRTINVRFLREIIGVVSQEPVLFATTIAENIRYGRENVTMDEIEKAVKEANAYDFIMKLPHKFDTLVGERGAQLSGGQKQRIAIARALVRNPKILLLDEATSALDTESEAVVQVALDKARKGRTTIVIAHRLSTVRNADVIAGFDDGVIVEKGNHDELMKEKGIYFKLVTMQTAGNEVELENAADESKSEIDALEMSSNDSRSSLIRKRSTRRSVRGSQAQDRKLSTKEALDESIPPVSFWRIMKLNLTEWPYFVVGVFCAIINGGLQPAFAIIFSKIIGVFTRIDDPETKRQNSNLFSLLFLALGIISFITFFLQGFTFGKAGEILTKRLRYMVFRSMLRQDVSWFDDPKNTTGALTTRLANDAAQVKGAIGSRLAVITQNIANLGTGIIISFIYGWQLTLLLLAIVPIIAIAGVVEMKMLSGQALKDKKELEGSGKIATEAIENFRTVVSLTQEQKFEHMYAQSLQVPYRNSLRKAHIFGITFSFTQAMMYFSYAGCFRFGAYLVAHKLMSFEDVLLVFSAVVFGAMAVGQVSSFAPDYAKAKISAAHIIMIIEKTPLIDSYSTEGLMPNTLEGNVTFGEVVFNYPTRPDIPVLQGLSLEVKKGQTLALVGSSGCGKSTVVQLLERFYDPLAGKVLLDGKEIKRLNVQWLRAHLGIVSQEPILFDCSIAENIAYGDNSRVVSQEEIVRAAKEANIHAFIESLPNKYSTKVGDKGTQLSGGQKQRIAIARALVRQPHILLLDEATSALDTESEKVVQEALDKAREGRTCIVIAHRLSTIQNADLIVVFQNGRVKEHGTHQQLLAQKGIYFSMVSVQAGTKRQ
Data set [3] concerns the target T1, P-gp. Description: Inhibition of verapamil-stimulated sensitive ATPase activity (ATP consumption) in P-gp expressing Sf9 vesicles. Type of data set: biochemical. The arrangement: purchased GenoMembrane Co., Ltd (Kanagawa, Japan); host or cells: Sf9 insect cells infected with baculovirus; purified plasma membrane vesicles. The following applies: for IC50: 50 µM verapamil. The protocol:
P-gp-mediated drug transport across membranes is driven by energy derived from hydrolysis of ATP. It is, therefore, possible to evaluate drug binding to P-gp by determining the ATPase activity. The method was modified from the procedure reported by Sarkadi et al.[64]. Briefly, solutions of test compounds and positive and negative controls in a reaction medium containing 50 mM MOPS-Tris (pH 7.4), 0.1 mM EGTA, 2 mM DDT, 50 mM KCl, 5 mM sodium azide, and 1 mM ouabain were incubated on ice in a 96 well plate. Then P-gp containing membrane vesicles to a final concentration of 0.5 mg/ml were added on ice to each well. […] Then, the ATPase reaction was started by the addition of MgATP to a final concentration of 5 mM and the plates with vesicles were incubated at 37 ^∘ C for 60 min. The reaction was stopped by the addition of a 10% SDS solution and the amount of inorganic phosphate was determined immediately by addition of a coloring solution containing final concentrations of 8 mM ascorbic acid, 10 mM zinc acetate, and 7 mM ammonium molybdate. The wells were then incubated at 37 ^∘ C for 20 min and the absorbance was scanned at wave lengths from 630 to 850 nm, and 740 nm was used for calculation of ATP consumption based on a phosphate standard curve freshly made with each experiment. To estimate sensitive ATPase activity mediated by P-gp, all experiments were conducted with no compound controls (2% DMSO), positive controls and background controls in which no stop solution was added, all in the absence and presence of 500 µM vanadate. The absorbance measured for a test condition was converted to nmol inorganic phosphate and normalized for reaction time and protein amount. The sensitive ATPase activity was then obtained by subtracting the inorganic phosphate generated in the presence of 500 µM vanadate at otherwise similar conditions.
(§1) Calcein fluorescence in arbitrary unit (a.u) corrected for background signal, which was the signal obtained from the cells incubated with HBSS ^7.4+ or HBSS ^5.5+ without calcein-AM, was plotted as a function of time and slopes (denoted m below) were obtained by linear regression. The increase in fluorescent calcein is a surrogate marker of increased P-gp inhibition. The slope from curves of fluorescence as a function of time for a compound ( mcompound ) was normalized to the slope of fluorescence in cells exposed to HBSS ^7.4+ or HBSS ^5.5+ only (referred as control, mcontrol ).

Data set [4] concerns the target T1, P-gp. Description: Calcein-AM efflux assay in MDCKII MDR1 cells. Type of data set: cell-based. Set-up: host or cells: MDCKII MDR1 cells. The protocol: Calcein-AM efflux experiments were performed on MDCKII MDR1 cells, which were seeded on black 96-well microplates. Before the experiments, media was removed from the wells and 50 µL pre-warmed HBSS ^7.4+ was added. After a 15 min incubation period, the HBSS ^7.4+ buffer was removed and 50 µL of solution containing P-gp inhibitor or test compound dissolved in HBSS ^7.4+ or HBSS ^5.5+ were added to the individual wells, followed by addition of 50 µL 10.0 µM calcein-AM giving a final calcein-AM concentration of 5.0 µM. Calcein-AM diffuses into the cell where it is either hydrolysed to a membrane-impermeable fluorescent calcein dye or extruded from the cell by P-gp[63]. Inhibiting P-gp increases the amount of calcein in the cell and a higher amount is hydrolysed to calcein, thus the fluorescence measured is increased. The highest concentration of each compound was added to a cell-containing well in the absence of calcein-AM to investigate if compounds were fluorescent themselves.
as §1

[5] abbreviates: Sf9 vesicles expressing human P-gp, 5 mM MgATP, 60 min, 37 °C, read-out: ATP assay IC50.

For `O=c1c(O)c(-c2ccccc2)oc2ccccc12` [3OH-flavone], in data set [1] (ref [4]), the “Class (known P-gp NBD inhibitor)” value is recorded as “Marginal”.
Take `C=C(CO)C1Cc2c(ccc3c(=O)c4c(oc23)COc2cc(OC)c(OC)cc2-4)O1` (centres unmarked) [6a,12a,-Dehydroamorphigenin]: in data set [1] (ref [1]), the “Class (known P-gp NBD inhibitor)” value is recorded as “Marginal”.
`C=C(CO)[C@H]1Cc2c(ccc3c2O[C@@H]2COc4cc(OC)c(OC)cc4[C@]2(O)C3=O)O1` [12a-Hydroxyamorphigenin]: the “Class (known P-gp NBD inhibitor)” value in data set [1] (ref [1]) is recorded as “Marginal”.
As to `Nc1ncnc2c1ncn2[C@@H]1O[C@H](COP(=O)(O)OP(=O)(O)OP(=O)(O)O)[C@@H](O)[C@H]1O` [ATP], the Kd at P-gp [2] is 300 to 800 µM.
Regarding `C=C(CO)[C@H]1Cc2c(ccc3c2O[C@@H]2COc4cc(OC)c(OC)cc4[C@@H]2C3=O)O1` [Amorphigenin], the “Class (known P-gp NBD inhibitor)” value in data set [1] (ref [1]) is listed as “Marginal”.
Consider `O=c1cc(-c2ccc(O)cc2)oc2cc(O)cc(O)c12` [Apigenin], for which the “Class (known P-gp NBD inhibitor)” value in data set [1] (ref [4]) is listed as “Marginal”.
On to `COc1ccc(-c2coc3cc(O)cc(O)c3c2=O)cc1` [Biochanin A], for which the “Class (known P-gp NBD inhibitor)” value in data set [1] (ref [2]) is recorded as “Active”.
Turning to `O=c1cc(-c2ccccc2)oc2cc(O)cc(O)c12` [Chrysin], the “Class (known P-gp NBD inhibitor)” value in data set [1] (ref [1]) is reported as “Marginal”.
In the case of `Oc1cc(O)c2c(c1)O[C@H](c1ccc(O)c(O)c1)[C@H](O)C2` [Epicatechin], the “Class (known P-gp NBD inhibitor)” value in data set [1] (ref [5]) is “Marginal”.
For `Oc1cc(O)c2c(c1)O[C@H](c1cc(O)c(O)c(O)c1)[C@H](O)C2` [Epigallocatechin], the “Class (known P-gp NBD inhibitor)” value in data set [1] (ref [1]) is “Marginal”.
Consider `O=C(O[C@@H]1Cc2c(O)cc(O)cc2O[C@@H]1c1cc(O)c(O)c(O)c1)c1cc(O)c(O)c(O)c1` [Epigallocatechingallate (EGCG), Epigallocatechingallate], for which the “Class (known P-gp NBD inhibitor)” value in data set [1] (ref [3]) is on record as “Active”.
Turning to `O=c1c(O)c(-c2ccccc2)oc2cc(O)cc(O)c12` [Galangin], the “Class (known P-gp NBD inhibitor)” value in data set [1] (ref [4]) was “Marginal”.
Consider `C=C(C)[C@H]1Cc2c(ccc3c2O[C@@H]2COc4cc(OC)c(OC)cc4[C@@H]2C3=O)O1` [Rotenone], for which the “Class (known P-gp NBD inhibitor)” value in data set [1] (ref [1]) is given as “Active”.
With `COc1cc(C2Oc3cc([C@H]4Oc5cc(O)cc(O)c5C(=O)[C@@H]4O)ccc3OC2CO)ccc1O` (some centres unmarked) [Silybin], the “Class (known P-gp NBD inhibitor)” value in data set [1] (ref [4]) is listed as “Marginal”.
In general, IC50 refers to the point on the concentration scale where inhibition reaches its midpoint. Consider `COc1cc2c(cc1OC)CN(CCc1ccc(NC(=O)c3cc(OC)c(OC)cc3NC(=O)c3cnc4ccccc4c3)cc1)CC2` [Tariquidar], for which the “Effect on verapamil-stimulated sensitive P-gp ATPase activity” value at P-gp [3] (1 µM Tariquidar plus 50 µM verapamil) was “reduced to the background buffer level”. In addition, the IC50 at P-gp [3] (setting [5]) came out at 0.11 µM.
On to `Cn1cnnc1CC(NS(=O)(=O)N1CCC(C(C)(C)C)CC1)C(=O)O` (centres unmarked) [compound 10], for which the half-inhibitory concentration (IC50) was 127 µM at P-gp [4] (MDCKII MDR1 cells, extracellular pH 5.5, 5.0 µM calcein-AM, read-out: Calcein-AM, pH 5.5 IC50); 299 µM at P-gp [4] (MDCKII MDR1 cells, extracellular pH 7.4, 5.0 µM calcein-AM, read-out: Calcein-AM, pH 7.4 IC50); 302 µM at P-gp [4] (log of IC50 in µM, extracellular pH 7.4, read-out: Calcein-AM, pH 7.4 Log IC50 (converted)); 332 µM at P-gp [3] (setting [5]); 331 µM on P-gp [3] (log of IC50 in µM, Sf9 vesicles, read-out: ATP assay Log IC50 (converted)). For the same compound, the “Ability to inhibit calcein-AM efflux” value on P-gp [4] (at both pH 5.5 and pH 7.4) was “ability to inhibit calcein-AM efflux at both pH 5.5 and pH 7.4”. For the same compound, the “Calcein-AM, pH 5.5 LogIC50” value at P-gp [4] (log of IC50 in µM, extracellular pH 5.5) is 2.10.
Turning to `COc1ccc(-c2oc3cc(O)cc(O)c3c(=O)c2O)cc1` [kaempferide], the “Class (known P-gp NBD inhibitor)” value in data set [1] (ref [4]) was “Marginal”.
As for `O=c1c(O)c(-c2ccc(O)cc2)oc2cc(O)cc(O)c12` [kaempferol], the “Class (known P-gp NBD inhibitor)” value in data set [1] (ref [4]) is on record as “Marginal”.
With Mitragynine, in data set [1] (ref [6]), the “Class (known P-gp NBD inhibitor)” value is “Marginal”.
